The values below come from ChEMBL document CHEMBL5385844, “Discovery of novel imidazole chemotypes as isoform-selective JNK3 inhibitors for the treatment of Alzheimer's disease” (Eur J Med Chem, 2023).

Data set [1] has as its target T1, Mitogen-activated protein kinase 8 (Homo sapiens, UniProt P45983). Kind of data set: Inhibition of JNK1 (unknown origin) assessed as incorporation of 33P-ATP.
The target in data set [2] is T2, Mitogen-activated protein kinase 9 (Homo sapiens, UniProt P45984). Kind of data set: Inhibition of JNK2 (unknown origin) assessed as incorporation of 33P-ATP.
T2 sequence (P45984 whole entry): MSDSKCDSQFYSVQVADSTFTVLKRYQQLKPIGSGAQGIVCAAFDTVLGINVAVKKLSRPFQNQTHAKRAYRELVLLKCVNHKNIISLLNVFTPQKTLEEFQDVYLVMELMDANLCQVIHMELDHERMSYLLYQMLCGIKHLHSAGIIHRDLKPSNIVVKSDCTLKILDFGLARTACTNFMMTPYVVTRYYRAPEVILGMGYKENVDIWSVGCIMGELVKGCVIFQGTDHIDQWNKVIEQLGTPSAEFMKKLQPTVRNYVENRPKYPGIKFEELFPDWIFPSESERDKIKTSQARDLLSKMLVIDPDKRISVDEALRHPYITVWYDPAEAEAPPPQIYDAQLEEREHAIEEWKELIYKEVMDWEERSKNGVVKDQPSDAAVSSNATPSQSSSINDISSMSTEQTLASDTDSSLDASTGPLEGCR
In data set [3] the target is Mitogen-activated protein kinase 10 (Homo sapiens, UniProt P53779). Briefly: Inhibition of human JNK3 incubated for 40 mins in presence of ATP and [gamma33P-ATP] by scintillation counting method. As to conditions: read-out: IC50.
Sequence of Mitogen-activated protein kinase 10 (P53779 whole entry): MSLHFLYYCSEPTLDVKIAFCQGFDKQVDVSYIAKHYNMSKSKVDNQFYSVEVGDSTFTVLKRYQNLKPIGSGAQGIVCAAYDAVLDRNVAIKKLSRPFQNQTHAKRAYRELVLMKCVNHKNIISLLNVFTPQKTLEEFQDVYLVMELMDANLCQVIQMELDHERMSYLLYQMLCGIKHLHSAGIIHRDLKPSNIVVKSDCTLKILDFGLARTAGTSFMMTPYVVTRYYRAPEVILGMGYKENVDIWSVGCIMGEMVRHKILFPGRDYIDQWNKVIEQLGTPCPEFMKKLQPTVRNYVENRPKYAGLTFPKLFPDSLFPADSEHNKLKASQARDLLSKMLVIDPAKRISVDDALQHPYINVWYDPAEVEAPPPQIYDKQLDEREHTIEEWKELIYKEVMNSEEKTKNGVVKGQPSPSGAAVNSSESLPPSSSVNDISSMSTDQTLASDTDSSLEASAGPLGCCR
Data set [4] concerns the target T1, Mitogen-activated protein kinase 8. Briefly: Inhibition of JNK1 (unknown origin) by ATP-competitive assay.
The target of data set [5] is T2, Mitogen-activated protein kinase 9. Kind of data set: Inhibition of JNK2 (unknown origin) by ATP-competitive assay.
Data set [6] addresses T1, Mitogen-activated protein kinase 8. Kind of data set: Inhibition of human JNK1 incubated for 40 mins in presence of ATP and [gamma33P-ATP] by scintillation counting method.
For data set [7], the target named is T2, Mitogen-activated protein kinase 9. Kind of data set: Inhibition of human JNK2 incubated for 40 mins in presence of ATP and [gamma33P-ATP] by scintillation counting method.
Data set [8] in a line: Tmax in Sprague-Dawley rat at 15 mg/kg, po measured upto 24 hrs by UPLC analysis. Format: ADME, organism-based. As to conditions: in vivo.
Data set [9] can be described thus: Oral bioavailability in Sprague-Dawley rat at 15 mg/kg measured upto 24 hrs by UPLC analysis. It is filed as ADME, organism-based. As to conditions: in vivo.
Data set [10] is described as follows: AUC in Sprague-Dawley rat at 15 mg/kg, po measured upto 24 hrs by UPLC analysis. It is filed as ADME, organism-based. Also noted: dose 15 mg/kg, time < 24 hrs, route po. As to conditions: in vivo.
Data set [11] can be described thus: Cmax in Sprague-Dawley rat at 15 mg/kg, po measured upto 24 hrs by UPLC analysis. Format: ADME, organism-based. Set-up: dose 15 mg/kg, time < 24 hrs, route po. The conditions noted are these: in vivo.
The nature of data set [12]: Half life in Sprague-Dawley rat at 15 mg/kg, po measured upto 24 hrs by UPLC analysis. Format: ADME, organism-based. The conditions noted are these: in vivo.
Data set [13] in a line: Half life in Sprague-Dawley rat at 1 mg/kg, iv measured upto 24 hrs by UPLC analysis. As to conditions: in vivo. Format: ADME, organism-based.
Data set [14] concerns Cortical neurone. Kind of data set: Neuroprotective activity against Amyloid beta (1 to 42)-induced toxicity in rat cortical neuron assessed as cell viability at 20 uM measured after 48 hrs by MTT assay. It is filed as functional. The conditions noted are these: read-out: Activity. A general note: Formazan colour is commonly taken as a measure of viable cells.
Data set [15] concerns Cortical neurone. Kind of data set: Neuroprotective activity against Amyloid beta (1 to 42)-induced toxicity in rat cortical neuron assessed as cell viability at 20 uM measured after 24 hrs by MTT assay. It is filed as functional. As to conditions: read-out: Activity.
Data set [16] can be described thus: AUC in Sprague-Dawley rat at 1 mg/kg, iv measured upto 24 hrs by UPLC analysis. Format: ADME, organism-based. The conditions noted are these: in vivo. Set-up: dose 1 mg/kg, time < 24 hrs, route iv.

T1 sequence (P45983 whole entry): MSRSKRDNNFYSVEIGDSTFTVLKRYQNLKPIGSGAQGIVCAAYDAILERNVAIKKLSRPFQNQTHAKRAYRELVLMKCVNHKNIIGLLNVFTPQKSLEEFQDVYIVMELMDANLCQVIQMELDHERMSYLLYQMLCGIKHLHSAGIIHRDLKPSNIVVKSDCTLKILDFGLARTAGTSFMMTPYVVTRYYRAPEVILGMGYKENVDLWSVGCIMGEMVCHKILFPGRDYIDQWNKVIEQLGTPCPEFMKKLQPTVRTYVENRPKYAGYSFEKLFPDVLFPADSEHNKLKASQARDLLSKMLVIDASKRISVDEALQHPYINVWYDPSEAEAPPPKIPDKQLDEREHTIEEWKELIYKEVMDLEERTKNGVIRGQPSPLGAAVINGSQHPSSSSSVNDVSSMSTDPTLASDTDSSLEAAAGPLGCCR

As for `O=C(C1CC1)N1CCC[C@H](Nc2nccc(-n3c(-c4ccc5c(c4)OCCO5)nc4cc(O)c(O)cc43)n2)C1`, the results for the half-maximal inhibitory concentration (IC50) in [1], in data set [2] and in [3] were > 10000 nM, ~1000 nM and 10 nM, respectively.
In the case of `O=C1c2ccccc2C2=NNC3=CC=CC1C32` (configuration not stated), the IC50 in data set [4] and in [5] was 40 nM throughout.
For `N#CCc1cnc(-c2ccc(Cl)c(Cl)c2)n1-c1ccnc(N[C@H]2CCCN(C(=O)C3CC3)C2)n1`, the half-inhibitory concentration (IC50) (as a rule, the concentration at which inhibition is half-maximal) in data set [6] is 312 nM; in [7] it was 44.2 nM; in [3], 2 nM. In addition, in [8], the time of peak concentration (Tmax) (commonly the time at which the peak concentration occurs) turned out to be 40.2 min. Further, the bioavailability (usually dose-corrected exposure relative to a reference, in per cent) in [9] stood at 6.2%. The exposure (AUC) (usually concentration integrated over time) at 24 h in data set [10] worked out at 839 ng·h/mL; in data set [16], 902 ng·h/mL. Further, the Cmax (in general, the peak of the concentration-time curve) in data set [11] is 406 ng/mL. Moreover, the half-life (in general, the time in which the quantity being followed falls by half) in [12] was 105 min; in data set [13] it was 12.6 min. Further, the figures for the viability at 20 µM in the data set with Cortical neurone [14] and in the data set on Cortical neurone [15] were 47% and 72.4%, respectively.
